Measured values from US9593381B2, “Method and kit for detecting carbapenemase genes” (Amplidiag OY, priority 2009, dated 2017).

Assays:
[1] = target: T1, NDM-1 (Klebsiella pneumoniae, UniProt C7C422); conditions: metallo-β-lactamase NDM-1; cited from earlier work
[2] = target: T1, NDM-1; conditions: cited from earlier work
[3] = tested on: Enterobacter cloacae strain harbouring IMI-2 gene; test: Antibiotic susceptibility (MIC) of the IMI-2 positive clinical strain; type: cell-based; parameters: MIC: unit not given beside the values; conditions: for resistance of the strain: IMI-2 positive Enterobacter cloacae strain

T1 sequence (C7C422 29-270 limits assumed): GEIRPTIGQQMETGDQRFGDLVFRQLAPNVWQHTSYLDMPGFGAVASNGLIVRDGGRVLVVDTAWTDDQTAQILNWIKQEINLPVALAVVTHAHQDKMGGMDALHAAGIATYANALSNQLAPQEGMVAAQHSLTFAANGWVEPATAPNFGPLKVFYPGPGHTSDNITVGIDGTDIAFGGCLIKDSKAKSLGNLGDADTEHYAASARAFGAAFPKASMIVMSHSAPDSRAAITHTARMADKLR

| Compound | binding to NDM-1 compared to VIM-2 [2] | resistance of the strain [3] | further results |
| --- | --- | --- | --- |
| C[C@H]1[C@H](NC(=O)/C(=N\OC(C)(C)C(=O)O)c2csc(N)n2)C(=O)N1S(=O)(=O)O [aztreonam] | – | – | hydrolysis by NDM-1 [1]: can hydrolyze all β-lactams except aztreonam |
| CO/N=C(\C(=O)N[C@@H]1C(=O)N2C(C(=O)O)=C(COC(C)=O)CS[C@H]12)c1csc(N)n1 [cefotaxime] | tighter binding | – | – |
| CO/N=C(\C(=O)N[C@@H]1C(=O)N2C(C(=O)O)=C(COC(N)=O)CS[C@H]12)c1ccco1 [cefuroxime] | tighter binding | – | – |
| CC(=O)OCC1=C(C(=O)O)N2C(=O)[C@@H](NC(=O)Cc3cccs3)[C@H]2SC1 [cephalothin] | tighter binding | – | – |
| C[C@@H](O)[C@H]1C(=O)N2C(C(=O)O)=C(S[C@@H]3CN[C@H](C(=O)Nc4cccc(C(=O)O)c4)C3)[C@H](C)[C@H]12 [ertapenem] | – | highly resistant | MIC ([3]; IMI-2 positive Enterobacter cloacae strain isolated from a patient in intensive care unit): > 256 |
| C[C@@H](O)[C@H]1C(=O)N2C(C(=O)O)=C(S[C@@H]3CN[C@H](C(=O)N(C)C)C3)[C@H](C)[C@H]12 [meropenem] | – | highly resistant | – |
| trimetoprim/sulfa | – | not, however, resistant | – |
